Experimental data: patent US20230158071A1, “TUMOR COMBINED IMMUNOTHERAPY” (CRAGE medical Co., Limited, priority 2018, published 2023)

Key:
mouse T cells = test: In vitro proliferation of mouse T cells (JQ1); type: cell-based; conditions: JQ1, dose-dependent manner
Excerpt: (§1) Another small molecule drug JQ1 is a BET bromodomain inhibitor acting on BRD4, it may induce tumor cell apoptosis (i.e., slow proliferation) by targeted inhibition of BRD4, thereby achieving anti-tumor effects.

mouse CAR-T cells = test: In vitro proliferation of mouse CAR-T cells (veliparib, JQ1); type: cell-based
Excerpt: as §1

E0771ERVIII cells = test: In vitro proliferation of E0771ERVIII cells (veliparib, JQ1); type: cell-based, mouse
Excerpt: as §1

CART cells = test: LDH cell killing experiment with veliparib; type: cell-based; conditions: 100 μM
Excerpt: as §1

Cc1sc2c(c1C)C(c1ccc(Cl)cc1)=N[C@@H](CC(=O)OC(C)(C)C)c1nnc(C)n1-2 [JQ1]
proliferation of mouse T cells (mouse T cells): significantly inhibit
proliferation of CAR-T cells (mouse CAR-T cells; JQ1, dose-dependent manner): significantly inhibit
proliferation of E0771ERVIII cells (E0771ERVIII cells; different concentrations of JQ1 for 48 h): could not inhibit

C[C@]1(c2nc3c(C(N)=O)cccc3[nH]2)CCCN1 [veliparib]
killing effect of CART cells (CART cells): could not improve
proliferation of mouse CAR-T cells (mouse CAR-T cells; veliparib at 20 μM or more): significantly inhibit
concentration level that may affect the proliferation level of E0771ERVIII cells (E0771ERVIII cells; in vitro): ≥ 10 µM
concentration that may significantly inhibit the proliferation of E0771ERVIII cells (E0771ERVIII cells; in vitro): ≥ 20 µM
